Reference: the METLIN SMRT retention time set (Domingo-Almenara et al. 2019)

Assay: gradient 5% acetonitrile 3 min, to 50% in 2 min, to 85% in 15 min, held 3 min, 100 µL/min
Conditions: column: Zorbax Extend-C18 2.1 x 50 mm; eluents: water / acetonitrile, 0.1% formic acid
Procedure, shortened: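 Values are retention times taken from adduct peaks that software picked and an analyst inspected. The pure standards were run as mixtures of ~100 molecules on HPLC linked to a quadrupole time-of-flight mass spectrometer, in positive and negative ionization mode. A Zorbax Extend-C18 column (2.1 × 50 mm, 1.8 μm) was used at 100 μL/min with water and acetonitrile, each including 0.1% formic acid.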

RP-LC retention time	Structure (SMILES)
601 s	O=C(CSc1cc(N2CCCC2)ncn1)NCc1cccs1
678 s	CCn1c(C2CCN(C(=O)c3ccc(Br)o3)C2)nc2cccnc21 (stereo not given)
1320 s	CCOc1nc2ccccc2nc1N1CCCC(C(=O)Nc2ccc(Br)cc2C)C1 (stereo not given)
672 s	COc1ccc(CNC(=O)C2CCN(Cc3cn(C)c4ccc(OC)cc34)CC2)c(OC)c1
833 s	CCc1noc([C@@H]2CC(F)(F)CN2C(=O)c2ccoc2C)n1
640 s	CC(C)C(=O)NCc1cnn(-c2ccc(C(=O)NCC3CCCO3)cc2)c1 (stereo not given)
1050 s	COc1ccc(-c2noc(C3CC(=O)N(c4ccc(C)c(Cl)c4)C3)n2)cc1 (stereo not given)
1020 s	O=C(Cc1ccccc1Cl)N1CCc2cc(-c3ccno3)ccc21
1160 s	COC(=O)c1cc2c(=O)n(-c3nc4ccc(OC)cc4s3)ccc2nc1C
991 s	O=C(NCc1ccco1)c1csc(N2CCN(c3ccc(F)cc3)CC2)n1
618 s	Cc1ccc2c(C(=O)NCc3ccc(C)o3)cc(NC(=O)C3CCC3)cc2n1
532 s	Cc1nnc(NC(=O)CSc2nnc(-c3ccc(=O)n(C)c3)n2C)s1
611 s	O=C(NCCc1ccco1)c1ccc2c(c1)nc1n2CCCCC1
1150 s	COc1ccc(-c2noc(-c3ccc(NCc4ccc(C)o4)nc3)n2)cc1
652 s	Cc1sc2ccn(CC(C)C)c(=O)c2c1C(=O)NCc1ccc(N(C)C)cc1
668 s	Cc1c(C(=O)NC2CC2)cnn1-c1cc(-c2nc(C(C)(C)C)no2)ccn1
1030 s	Cc1ccc2c(c1)N(S(C)(=O)=O)CCC(C(=O)Nc1ccccc1Cl)O2 (stereo not given)
730 s	Cc1cc(C)cc(NC(=O)N2CCC(c3nc(C(=O)N(C)C)c(C)o3)CC2)c1

Further lines, the compound ahead of its results:

Structure (SMILES)	RP-LC retention time
Cc1ccc(Oc2nccn3c(=O)n(CC(=O)NCCCc4ccccc4)nc23)cc1	928 s
CN1CCC(C2CCN(S(=O)(=O)c3ccccc3Cl)C2)CC1 (stereo not given)	710 s
CCOc1ccc(-c2noc(Cn3nc(-c4ccccc4F)ccc3=O)n2)cc1	1050 s
CCOC(=O)c1cccc(NC2=NS(=O)(=O)C(c3ccc(F)cc3)=C2C)c1	927 s
O=C(Cc1cccs1)N(c1ccc(Br)cc1)C1C=CS(=O)(=O)C1 (stereo not given)	833 s
COc1ccc2c(c1)C=C(C(=O)NCc1ccccc1)C=CO2	940 s
CC(=O)N1CCN(c2nc3c(s2)CC(C(=O)Nc2cccc(Cl)c2)CC3)CC1 (stereo not given)	628 s
COCCC1(NS(C)(=O)=O)CCN(C(=O)NC(C)C)CC1	588 s
O=S(=O)(NCc1ccccc1Cl)c1ccc2c(c1)-c1oncc1CO2	907 s
CCCn1cc(CCNS(=O)(=O)CC)c2cccnc21	661 s
CCOc1ccc(CC(=O)N2CCC3(CC2)N=C(c2ccc(C)cc2)NO3)cc1	871 s
CC1CC(=O)c2cnc(N3CCN(c4ccccc4)CC3)nc2C1 (stereo not given)	1080 s
O=c1[nH]cnc2scc(-c3ccc(Cl)cc3)c12	734 s
Cc1ccc(CNC(=O)C2(c3ccc(NS(C)(=O)=O)cc3)CCCCC2)cc1	943 s
CCN1CCN(c2cc(C)c3cc(NC(=S)NCc4cc(OC)ccc4OC)ccc3n2)CC1	598 s
Cc1ccc(S(=O)(=O)Nc2ccc(Cn3cncn3)cc2)cc1Cl	760 s
O=C(NCc1ccncc1)C1CCCN(c2nnc3ccc(C(F)(F)F)cn23)C1 (stereo not given)	550 s
O=C(NCc1cscn1)C1CCN(S(=O)(=O)c2cccc(Cl)c2)CC1	747 s
Clc1ccccc1-c1nc2ccccc2[nH]1	663 s
CS(=O)(=O)Nc1cccc(NC(=O)c2ccc(N3CCCC3)nn2)c1	598 s
COc1ccc(-n2c(=O)c3sccc3n(Cc3nc(-c4ccccc4)no3)c2=O)cc1	953 s
O=C(Cn1cnc2ccccc21)NCCCn1ccc2ccccc21	605 s
COc1ccc2c(c1)C1(CCN(S(=O)(=O)c3ccc(F)cc3F)C1)C(=O)N2 (stereo not given)	841 s
CCn1c(=O)c(N2CCCC(C(=O)N3CCN(c4ccc(F)cc4)CC3)C2)nc2ccccc21 (stereo not given)	1090 s
CCC(=O)N1CCc2cc(N3CC(C(=O)Nc4ccc(OC)cc4C)CC3=O)ccc21 (stereo not given)	720 s
CCOC(=O)c1c(C)[nH]c(CCC(=O)NCCN2CCOCC2)c1C	597 s
O=c1n(CCOc2ccc(F)cc2)nc2c(S(=O)(=O)N3CCCCCC3)cccn12	744 s
